The subject of the assay is pseudovirus of SARS-CoV-2 original strain (SARS-CoV-2 WT). Conditions: for IC50: read-out: IC50, inhibitory effect on pseudovirus, Hela hACE2 cells.

This note sets out measurements from patent publication US20240228547A1, “POLYPEPTIDE FOR RESISTING NOVEL CORONAVIRUS AND APPLICATION THEREOF” (INSTITUTE OF MICROBIOLOGY, CHINESE ACADEMY OF SCIENCES, priority 2021, published 2024).

As usually defined, the IC50 is the concentration that gives 50% inhibition.

For the molecule `CC[C@H](C)[C@H](NC(=O)CNC(=O)[C@H](CO)NC(=O)[C@@H](NC(=O)[C@H](CC(=O)O)NC(=O)CNC(=O)[C@H](Cc1ccccc1)NC(=O)[C@H](CCCCN)NC(=O)[C@@H](N)C(C)C)[C@@H](C)CC)C(=O)N[C@@H](CC(N)=O)C(=O)N[C@@H](C)C(=O)N[C@@H](CO)C(=O)N[C@H](C(=O)N[C@H](C(=O)N[C@@H](CC(N)=O)C(=O)N[C@H](C(=O)N[C@@H](CCCCN)C(=O)N[C@@H](CCC(=O)O)C(=O)N[C@@H](CCC(=O)O)C(=O)N[C@H](C(=O)N[C@@H](CC(=O)O)C(=O)N[C@@H](CCCNC(=N)N)C(=O)N[C@@H](CC(C)C)C(=O)N[C@@H](Cc1ccc(O)cc1)C(=O)N[C@@H](CCC(=O)O)C(=O)N[C@H](C(=O)N[C@H](C(=O)N[C@@H](CCCCN)C(=O)N[C@@H](CC(N)=O)C(=O)N[C@@H](CC(C)C)C(=O)N[C@@H](CC(N)=O)C(=O)N[C@@H](CCC(=O)O)C(=O)N[C@@H](CO)C(=O)N[C@@H](CC(C)C)C(=O)N[C@H](C(=O)N[C@@H](CC(=O)O)C(=O)N[C@@H](CC(C)C)C(=O)N[C@@H](CCC(N)=O)C(=O)N[C@@H](CCC(=O)O)C(=O)N[C@@H](CC(C)C)C(=O)O)[C@@H](C)CC)C(C)C)C(C)C)[C@@H](C)CC)[C@@H](C)CC)C(C)C)C(C)C` [Polypeptide P3-3], the “Increase multiple (fold increase in the inhibitory effect compared to the polypeptide P3)” value amounted to 3.4 and the IC50 came to 230 nM.
Turning to `CC[C@H](C)[C@H](N)C(=O)N[C@@H](CO)C(=O)NCC(=O)N[C@H](C(=O)N[C@@H](CC(N)=O)C(=O)N[C@@H](C)C(=O)N[C@@H](CO)C(=O)N[C@H](C(=O)N[C@H](C(=O)N[C@@H](CC(N)=O)C(=O)N[C@H](C(=O)N[C@@H](CCCCN)C(=O)N[C@@H](CCC(=O)O)C(=O)N[C@@H](CCC(=O)O)C(=O)N[C@H](C(=O)N[C@@H](CC(=O)O)C(=O)N[C@@H](CCCNC(=N)N)C(=O)N[C@@H](CC(C)C)C(=O)N[C@@H](CC(N)=O)C(=O)N[C@@H](CCC(=O)O)C(=O)N[C@H](C(=O)N[C@@H](C)C(=O)N[C@@H](CCCCN)C(=O)N[C@@H](CC(N)=O)C(=O)N[C@@H](CC(C)C)C(=O)N[C@@H](CC(N)=O)C(=O)N[C@@H](CCC(=O)O)C(=O)N[C@@H](CO)C(=O)N[C@@H](CC(C)C)C(=O)N[C@H](C(=O)N[C@@H](CC(=O)O)C(=O)N[C@@H](CC(C)C)C(=O)N[C@@H](CCC(N)=O)C(=O)N[C@@H](CCC(=O)O)C(=O)N[C@@H](CC(C)C)C(=O)O)[C@@H](C)CC)C(C)C)[C@@H](C)CC)[C@@H](C)CC)C(C)C)C(C)C)[C@@H](C)CC` [Polypeptide P3-4], the “Increase multiple (fold increase in the inhibitory effect compared to the polypeptide P3)” value was 3.3 and the IC50 was 240 nM.
As to `CC[C@H](C)[C@H](N)C(=O)N[C@@H](CO)C(=O)NCC(=O)N[C@H](C(=O)N[C@@H](CC(N)=O)C(=O)N[C@@H](C)C(=O)N[C@@H](CO)C(=O)N[C@H](C(=O)N[C@H](C(=O)N[C@@H](CC(N)=O)C(=O)N[C@H](C(=O)N[C@@H](CCC(N)=O)C(=O)N[C@@H](CCCCN)C(=O)N[C@@H](CCC(=O)O)C(=O)N[C@H](C(=O)N[C@@H](CC(=O)O)C(=O)N[C@@H](CCCNC(=N)N)C(=O)N[C@@H](CC(C)C)C(=O)N[C@@H](CC(N)=O)C(=O)N[C@@H](CCC(=O)O)C(=O)N[C@H](C(=O)N[C@@H](C)C(=O)N[C@@H](CCCCN)C(=O)N[C@@H](CCC(=O)O)C(=O)N[C@@H](CC(C)C)C(=O)N[C@@H](CC(N)=O)C(=O)N[C@@H](CCC(=O)O)C(=O)N[C@@H](CO)C(=O)N[C@@H](CC(C)C)C(=O)N[C@H](C(=O)N[C@@H](CC(=O)O)C(=O)N[C@@H](CC(C)C)C(=O)N[C@@H](CCC(N)=O)C(=O)N[C@@H](CCC(=O)O)C(=O)N[C@@H](CC(C)C)C(=O)O)[C@@H](C)CC)C(C)C)[C@@H](C)CC)[C@@H](C)CC)C(C)C)C(C)C)[C@@H](C)CC` [Polypeptide P3-5], the “Increase multiple (fold increase in the inhibitory effect compared to the polypeptide P3)” value is on record as 0.5 and the IC50 is 1590 nM.
